Measurements published in patent publication US6387896B1, “Bicyclic oxazolidinones as antibacterial agents” (Pharmacia & Upjohn Co., priority 1999, dated 2002).
Converted amounts (≈) assume the structure as drawn.

Columns and labels:
[1] = test system: Moraxella catarrhalis UC® 30610; assay: Minimum inhibitory concentration (MIC) by agar dilution, Moraxella catarrhalis; assay type: cell-based; details: UC30610, lowest concentration that inhibits visible growth, read-out: Minimum Inhibitory Concentration M.CAT.
Description: (§1) The oxazolidinone antibacterial agents of this invention have useful activity against a variety of organisms. The in vitro activity of compounds of this invention can be assessed by standard testing procedures such as the determination of minimum inhibitory concentration (MIC) by agar dilution as described in “Approved Standard. Methods for Dilution Antimicrobial Susceptibility Tests for Bacteria That Grow Aerobically”, 3rd. ed., published 1993 by the National Committee for Clinical Laboratory Standards, Villanova, Pa., USA. The activity of compounds of this invention against Staphylococcus aureus, Staphylococcus epidermidis, Streptococcus pneumoniae, Enterococcus faecalis, Moraxella catarrhalis and H. influenzae is shown in Table 1. No. 1 is Methicillin-susceptible S. aureus UC® 9213. No. 2 is Moraxella catarrhalis UC® 30610. Minimum inhibitory concentration: lowest concentration of drug (μg/mL) that inhibits visible growth of the organism.

[2] = test system: Methicillin-susceptible S. aureus UC® 9213; assay: Minimum inhibitory concentration (MIC) by agar dilution, S. aureus; assay type: cell-based; details: Staphylococcus aureus, UC9213, lowest concentration that inhibits visible growth
Description: as §1

SMILES	MIC [1] [µg/mL]	MIC [2] [µg/mL]	melting point
CC(=O)NCC1CN(c2ccc3c(c2)CC(C)S3)C(=O)O1 (stereo in doubt) [Example 20, N-{[(5R)-3-(2(+)-methyl-2,3-dihydro-1-benzothien-5-yl)-2-oxo-1,3-oxazolidin-5-yl]methyl}acetamide]	16 (≈ 52.2 µM)	4 (≈ 13.1 µM)	
CC(=O)NC[C@H]1CN(c2ccc3c(c2)CC(C)N3CCF)C(=O)O1 (stereo partly drawn) [Example 1, N-({(5S)-3-[1-(2-Fluoroethyl)-2-methyl-2,3-dihydro-1H-indol-5-yl]-2-oxo-1,3-oxazolidin-5-yl}methyl)acetamide]			127 to 130 °C
CC(=O)NC[C@H]1CN(c2ccc3c(c2)CC(C)N3C(=O)CO)C(=O)O1 (stereo partly drawn) [Example 2, N-{[(5S)-3-(1-Glycoloyl-2-methyl-2,3-dihydro-1H-indol-5-yl)-2-oxo-1,3-oxazolidin-5-yl]methyl}acetamide]			130 to 133 °C
CC(=O)NC[C@H]1CN(c2ccc3c(c2)C[C@@H](C)N3C(=O)CO)C(=O)O1 [Example 3, N-({(5S)-3-[(2R)-1-Glycoloyl-2-methyl-2,3-dihydro-1H-indol-5-yl]-2-oxo-1,3-oxazolidin-5-yl}methyl)acetamide]	4 (≈ 11.5 µM)	4 (≈ 11.5 µM)	
CC(=O)NC[C@H]1CN(c2ccc3c(c2)C[C@@H](C)N3C=O)C(=O)O1 [Example 4, N-({(5S)-3-[(2R)-1-Formyl-2-methyl-2,3-dihydro-1H-indol-5-yl]-2-oxo-1,3-oxazolidin-5-yl}methyl)acetamide]	4 (≈ 12.6 µM)	1 (≈ 3.15 µM)	158 to 159 °C
CCC(=O)NC[C@H]1CN(c2ccc3c(c2)C[C@@H](C)N3C=O)C(=O)O1 [Example 5, N-({(5S)-3-[(2R)-1-Formyl-2-methyl-2,3-dihydro-1H-indol-5-yl]-2-oxo-1,3-oxazolidin-5-yl}methyl)propanamide]	4 (≈ 12.1 µM)	2 (≈ 6.04 µM)	118 to 119 °C
CC(=S)NC[C@H]1CN(c2ccc3c(c2)C[C@@H](C)N3C=O)C(=O)O1 [Example 6, N-({(5S)-3-[(2R)-1-Formyl-2-methyl-2,3-dihydro-1H-indol-5-yl]-2-oxo-1,3-oxazolidin-5-yl}methyl)ethanethioamide]	1 (≈ 3 µM)	< 0.5	95 to 96 °C
COCC(=O)N1c2ccc(N3C[C@H](CNC(C)=O)OC3=O)cc2C[C@H]1C [Example 7, N-({(5S)-3-[(2R)-1-(2-Methoxyacetyl)-2-methyl-2,3-dihydro-1H-indol-5-yl]-2-oxo-1,3-oxazolidin-5-yl}methyl)acetamide]	8 (≈ 22.1 µM)	4 (≈ 11.1 µM)	174 to 175 °C
CC(=O)NC[C@H]1CN(c2ccc3c(c2)C[C@@H](C)N3C(=O)COC(C)=O)C(=O)O1 [Example 8, 2-((2R)-5-{(5S)-5-[(Acetylamino)methyl]-2-oxo-1,3-oxazolidin-3-yl}-2-methyl-2,3-dihydro-1H-indol-1-yl)-2-oxoethyl acetate]	16	8	186 to 187 °C
CC(=O)NC[C@H]1CN(c2ccc3c(c2)C[C@@H](C)N3C(C)=O)C(=O)O1 [Example 9, N-({(5S)-3-[(2R)-1-Acetyl-2-methyl-2,3-dihydro-1H-indol-5-yl]-2-oxo-1,3-oxazolidin-5-yl}methyl)acetamide]	8 (≈ 24.1 µM)	2 (≈ 6.04 µM)	184 to 185 °C
CNC(=S)N1c2ccc(N3C[C@H](CNC(C)=O)OC3=O)cc2C[C@H]1C [Example 10, N-[((5S)-3-{(2R)-2-Methyl-1-[(methylamino)carbothioyl]-2,3-dihydro-1H-indol-5-yl}-2-oxo-1,3-oxazolidin-5-yl)methyl]acetamide]	8 (≈ 22.1 µM)	4 (≈ 11 µM)	109 to 111 °C
CC(=O)OCC(=O)N1c2ccc(N3C[C@H](CNC(C)=S)OC3=O)cc2C[C@H]1C [Example 11, 2-((2R)-5-{(5S)-5-[(Ethanethioylamino)methyl]-2-oxo-1,3-oxazolidin-3-yl}-2-methyl-2,3-dihydro-1H-indol-1-yl)-2-oxoethyl acetate]	4	1	
CC(=S)NC[C@H]1CN(c2ccc3c(c2)C[C@@H](C)N3C(=O)CO)C(=O)O1 [Example 12, N-({(5S)-3-[(2R)-1-Glycoloyl-2-methyl-2,3-dihydro-1H-indol-5-yl]-2-oxo-1,3-oxazolidin-5-yl}methyl)ethanethioamide]	1 (≈ 2.75 µM)	< 0.5	115 to 117 °C
CC(=O)NC[C@H]1CN(c2ccc3c(c2)CCC(C)N3C=O)C(=O)O1 (stereo partly drawn) [Example 13, N-{[(5S)-3-(1-Formyl-2-methyl-1,2,3,4-tetrahydro-6-quinolinyl)-2-oxo-1,3-oxazolidin-5-yl]methyl}acetamide]			85 to 87 °C
CC(=O)NC[C@H]1CN(c2ccc3c(c2)CC[C@@H](C)N3C=O)C(=O)O1 [Example 14, N-({(5S)-3-[(2R)-1-Formyl-2-methyl-1,2,3,4-tetrahydro-6-quinolinyl]-2-oxo-1,3-oxazolidin-5-yl}methyl)acetamide]	4 (≈ 12.1 µM)	2 (≈ 6.04 µM)	89 to 91 °C
CC(=S)NC[C@H]1CN(c2ccc3c(c2)CC[C@@H](C)N3C=O)C(=O)O1 [Example 15, N-({(5S)-3-[(2R)-1-Formyl-2-methyl-1,2,3,4-tetrahydro-6-quinolinyl]-2-oxo-1,3-oxazolidin-5-yl}methyl)ethanethioamide]	1 (≈ 2.88 µM)	< 0.5	184 to 186 °C
CC(=O)NC[C@H]1CN(c2ccc3c(c2)OCC(C)N3C=O)C(=O)O1 (stereo partly drawn) [Example 16, N-{[(5S)-3-(4-Formyl-3-methyl-3,4-dihydro-2H-1,4-benzoxazin-7-yl)-2-oxo-1,3-oxazolidin-5-yl]methyl}acetamide]			118 to 121 °C (dec.)
CC(=O)NC[C@H]1CN(c2ccc3c(c2)OC[C@@H](C)N3C=O)C(=O)O1 [Example 17, N-({(5S)-3-[(3R)-4-Formyl-3-methyl-3,4-dihydro-2H-1,4-benzoxazin-7-yl]-2-oxo-1,3-oxazolidin-5-yl}methyl)acetamide]	8 (≈ 24 µM)	4 (≈ 12 µM)	148 to 151 °C
CC(=S)NC[C@H]1CN(c2ccc3c(c2)OC[C@@H](C)N3C=O)C(=O)O1 [Example 18, N-({(5S)-3-[(3R)-4-Formyl-3-methyl-3,4-dihydro-2H-1,4-benzoxazin-7yl]-2-oxo-1,3-oxazolidin-5-yl}methyl)ethanethioamide]	2 (≈ 5.72 µM)	< 0.5	95 to 98 °C
CC(=O)NC[C@H]1CN(c2ccc3c(c2)CC(CF)N3C=O)C(=O)O1 (stereo partly drawn) [Example 19, (S)-N-[[3-[1-Formyl-2-(fluoromethyl)-5-indolinyl]-2-oxo-5-oxazolidinyl]methyl]acetamide]	16 (≈ 47.7 µM)	4 (≈ 11.9 µM)	132 to 136 °C
CC(=S)NC[C@H]1CN(c2ccc3c(c2)CC(C(C)(C)C)N3C=O)C(=O)O1 (stereo partly drawn) [Example 21, N-[[(5S)-3-[2-(1,1-dimethylethyl)-1-formyl-2,3-dihydro-1H-indol-5-yl]-2-oxo-5-oxazolidinyl]methyl]ethanethioamide]	4 (≈ 10.7 µM)	2 (≈ 5.33 µM)	219 to 221 °C
CC(=O)NC[C@H]1CN(c2ccc(N3CCN(C(=O)CO)CC3)c(F)c2)C(=O)O1 [eperezolid, reference compound]	8 (≈ 20.3 µM)	4 (≈ 10.1 µM)	
CC(=O)NC[C@H]1CN(c2ccc(N3CCOCC3)c(F)c2)C(=O)O1 [linezolid, reference compound]	8 (≈ 23.7 µM)	4 (≈ 11.9 µM)	
CN[C@H](CC(C)C)C(=O)N[C@H]1C(=O)N[C@@H](CC(N)=O)C(=O)N[C@H]2C(=O)N[C@H]3C(=O)N[C@H](C(=O)N[C@H](C(=O)O)c4cc(O)cc(O)c4-c4cc3ccc4O)[C@H](O)c3ccc(c(Cl)c3)Oc3cc2cc(c3O[C@@H]2O[C@H](CO)[C@@H](O)[C@H](O)[C@H]2O[C@H]2C[C@](C)(N)[C@H](O)[C@H](C)O2)Oc2ccc(cc2Cl)[C@H]1O [vancomycin, reference compound]	> 32	1 (≈ 0.69 µM)	
